From US20010014454A1, “NOVEL METAL COMPLEXES” (priority 2000, published 2001)

T1: G-CSF receptor (Mus musculus, UniProt P40223)
T1 construct: they express endogenous G-CSF receptors; endogenous in cells; host or cells: NFS60 murine myeloid cells with a G-CSF-responsive luciferase reporter
T1 sequence (P40223 26-837): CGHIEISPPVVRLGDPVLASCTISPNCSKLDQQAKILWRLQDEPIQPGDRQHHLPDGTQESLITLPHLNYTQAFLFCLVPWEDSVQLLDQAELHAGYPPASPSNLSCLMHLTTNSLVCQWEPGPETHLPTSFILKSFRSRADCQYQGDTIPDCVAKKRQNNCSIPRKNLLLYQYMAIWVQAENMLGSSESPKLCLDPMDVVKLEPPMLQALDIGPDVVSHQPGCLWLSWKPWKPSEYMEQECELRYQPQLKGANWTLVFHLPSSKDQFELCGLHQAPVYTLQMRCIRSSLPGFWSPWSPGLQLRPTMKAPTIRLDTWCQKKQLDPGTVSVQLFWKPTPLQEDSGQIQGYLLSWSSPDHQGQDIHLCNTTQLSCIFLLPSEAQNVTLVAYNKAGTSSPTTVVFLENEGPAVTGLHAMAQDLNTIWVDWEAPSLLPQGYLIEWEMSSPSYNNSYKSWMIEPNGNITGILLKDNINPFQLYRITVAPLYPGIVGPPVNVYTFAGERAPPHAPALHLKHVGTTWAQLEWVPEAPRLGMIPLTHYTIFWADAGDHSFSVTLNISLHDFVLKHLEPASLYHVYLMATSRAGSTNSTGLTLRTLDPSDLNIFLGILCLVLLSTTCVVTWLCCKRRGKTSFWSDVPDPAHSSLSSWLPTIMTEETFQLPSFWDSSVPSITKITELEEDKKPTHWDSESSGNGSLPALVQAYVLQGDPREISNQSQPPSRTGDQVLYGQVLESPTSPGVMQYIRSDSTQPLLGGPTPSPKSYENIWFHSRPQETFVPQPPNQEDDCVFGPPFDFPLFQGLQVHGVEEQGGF


Assays:
[1] = tested on: peripheral blood neutrophil and monocyte count; test: In vivo evaluation of peripheral blood neutrophil and monocyte count in the mouse
Procedure: Compounds of this invention are also tested for activity in the following assays: CFU-G assay (an example of which is described in King A G, Talmadge J., Badger A M, Pelus L M. Regulation of colony stimulating activity production from bone marrow stromal cells by the hematoregulatory peptide, HP-5. Exp. Hematol. 20:223-228, 1992) and in vivo evaluation of peripheral blood neutrophil and monocyte count in the mouse (an example of which is described in Pelus, L. M.; King, A. G.; Broxmeyer, H. E.; DeMarsh, P. L.; Petteway, S. R.; Bhatnagar, P. K., In vivo modulation of hematopoiesis by a novel hematoregulatory peptide Exp-Hematol. 1994 22(3): 239-47). In order to confirm the requirement for zinc(II) chelation, the above CFU-G assay was also conducted in the presence of EDTA.

G-CSF/Fc fusion protein = test: Isothermal titration microcalorimetry; assay type: binding; details: in the presence of zinc
Procedure: Zinc-mediated affinity of compounds from this invention for dimeric cell-surface receptors (specifically the G-CSF receptor) was measured by isothermal titration microcalorimetry experiments. Titration microcalorimetry detects binding as heat originating from the intrinsic bond forming enthalpy change. In this assay, the compounds were titrated first against zinc(II) alone. In a separate experiment, the compounds were then assayed in the presence of zinc and a dimeric cell-surface receptor/Fc fusion protein (a G-CSF/Fc fusion protein), which contained the extracellular domain of the receptor presented in a dimeric form due to the Fc component.

G-CSF receptor [2] = molecular target: T1, G-CSF receptor; test: Luciferase reporter gene assay in G-CSF-responsive NFS60 cells; assay type: cell-based, murine; details: absence of zinc
Procedure: Activity of compound 1a is below the threshold of 150% over background. The study was performed as a Luciferase assay configured on the G-CSF-responsive NFS60 cell line as described in Tian et al., Science 281, 257-259 (1998). The experiments shown in FIGS. 2-8 used the same NFS60 cell line.
Compounds of the present invention are tested for potency as agonist of a dimeric cell-surface receptor in a Luciferase reporter gene assay such as described in Tian et al., Science 281. 257-259 (1998). For example, for G-CSF NFS60 cells (Holmes, et al., Proc. Natl. Acad. Sci. USA 82: 6687-6691 (1985)) are selected because they express endogenous G-CSF receptors closely matching the pattern of STAT (signal transducers and activators of transcription) activation observed in primary murine and human bone marrow cells.

G-CSF receptor [3] = molecular target: T1, G-CSF receptor; test: Luciferase assay and EDTA (NFS60 cells, with or without metal chlorides); assay type: cell-based, murine; details: for agonist activity in the presence of EDTA: in the presence of EDTA (FIGS. 3 and 4)
Procedure: FIG. 3 is an analysis of the effect of ethylenediaminetetraacetic acid (as used herein—EDTA) on the activity of Compound 1a (from Example 1) in NFS60 cells. Shown are luciferase response curves of Compound 1a at the indicated concentrations and in the presence of various concentrations of EDTA. […] The media in this assay contained a small amount (1-5 uM) of zinc(II).
FIGS. 7 and 8 show an analysis of the effect of metal chlorides on the EDTA depleted activity of Compound 1a on NFS60 cells. Shown are luciferase response curves as effected by the indicated metal chlorides. […] None of the other metals tested could overcome the inhibitory effect of EDTA.
In order to determine the requisiteness of zinc chelation of small organic molecules to agonist activity at dimeric cell-surface receptors, the above luciferase assay was performed on the G-CSF receptor in the presence of EDTA. EDTA is a strong metal chelator and had as it only effect, the removal of zinc from the ligand-receptor interaction.

affinity for the fusion protein construct (G-CSF/Fc fusion protein)	luciferase activity over background (G-CSF receptor [2]) [%]	effect of EDTA on luciferase activity (G-CSF receptor [3]; EDTA at 1.2 millimolar, media contained 1-5 uM zinc(II))	agonist activity in the presence of EDTA (G-CSF receptor [3])	effect of EDTA on luciferase activity (G-CSF receptor [3]; EDTA at both 1.2 and 5 millimolar)	Molecule	peripheral blood neutrophil and monocyte count [1]	effect of metal chlorides on the EDTA depleted luciferase activity (G-CSF receptor [3]; Compound 1a, 50 micromolar EDTA, plus metal chlorides)
submicromolar	–	–	–	–	Cc1ccc2nc(N=C3NC4(c5ccccn5)NC(=Nc5nc6ccccc6[nH]5)NC4(c4ccccn4)N3)[nH]c2c1.O=C(O)C(F)(F)F.O=C(O)C(F)(F)F (stereo not shown) [Compound 3a, 5-(2-benzimidazolylimino)-2-[(5-methyl-2-benzimidazolyl)imino]-3a,6a-bis(2-pyridyl)-1,2,3,3a,4,5,6,6a-octahydroimidazo[4,5-d]imidazole bis(trifluoroacetate) salt]	elevation	–
submicromolar	< 150	antagonized	abrogated	–	c1ccc(C23NC(=Nc4nc5ccccc5[nH]4)NC2(c2ccccn2)NC(=Nc2nc4ccccc4[nH]2)N3)nc1 (stereo not shown) [Compound 1a, 2,5-Bis[2-benzimidazolylimino]-3a,6a-bis(2-pyridyl)-1,2,3,3a,4,5,6,6a-octahydroimidazo[4,5-d]imidazole]	elevation	Only zinc (II) at concentrations 0.5-10 micromolar can overcome the inhibition
–	–	–	not mediated by metal ions	little effect	recombinant G-CSF: the natural ligand (i.e. G-CSF or recombinant G-CSF) of the G-CSF receptor (protein, UniProt P09919 31-207, looked up) Granulocyte …: TPLGPASSLPQSFLLKCLEQVRKIQGDGAALQEKLVSECATYKLCHPEELVLLGHSLGIPWAPLSSCPSQALQLAGCLSQLHSGLFLYQGLLQALEGISPELGPTLDTLQLDVADFATTIWQQMEELGMAPALQPTQGAMPAFASAFQRRAGGVLVASHLQSFLEVSYRVLRHLAQP	–	–
